Columns and labels:
[1] = tested on: CD34+ cells; test: Ex-vivo expansion of CD34+ cell enriched cord blood cultures with cytokines; cell counts and FACS surface antigen analysis; type: cell-based, human; details: for CD34+ cells per ml: three weeks, SCF, FLt3, IL-6, IL-3, re-selected; for CD34+ (×10^4): 10^−5M
Protocol: Human blood cells were obtained from umbilical cord blood from female patients following full-term, normal delivery (informed consent was obtained).
Samples were collected and processed within 12 hours postpartum. Blood was mixed with 3% Gelatin (Sigma, St. Louis, Mo.), sedimented for 30 minutes to remove most red blood cells. […] The mononuclear cell fraction in the interface layer was collected, washed three times and resuspended in phosphate-buffered saline (PBS) solution (Biological Industries) containing 0.5% bovine serum albumin (BSA, Fraction V; Sigma).
To purify CD34^+ mononuclear cells, the fraction was subjected to two cycles of immuno-magnetic separation using the MiniMACS® or Clinimax® CD34 Progenitor Cell Isolation Kit (Miltenyi Biotec, Auburn, Calif.) as per manufacturer's recommendations.
CD34^+ expressing purified cells above were cultured in 24-well Costar Cell Culture Clusters (Corning Inc., Corning, N.Y.) or culture bags (American Fluoroseal Corp), at a concentration of 10^4 cells/ml in alpha medium (Biological Industries, Beit Haemek, Israel) supplemented with 10% fetal bovine serum (FBS, Biological Industries). The following human recombinant cytokines were added: Thrombopoietin (TPO), interleukin-6 (IL-6), FLT-3 ligand and stem cell factor (SCF), all at final concentrations of 50 ng/ml each, though occasionally IL-3, at a concentration of 20 ng/ml, was added either together or instead of SCF. For non-hematopoietic cell differentiation, FGF, EGF, NGF, VEGF, LIF or Hepatocyte growth factor (HGF) were used to supplement the growth medium, either alone or in various combinations. All cytokines used were purchased from Perpo Tech, Inc. (Rocky Hill, N.J.). The cultures were incubated at 37° C., 5% CO2, in a humidified atmosphere.
At weekly intervals, cell cultures were toped and semi-depopulated and were supplemented with fresh medium, serum and cytokines or supplemented with fresh growth medium, alone. At predetermined time points, cells were harvested, stained with trypan blue, counted, and cell morphology was determined via the use of cytospin (Shandon, UK)-prepared smears stained with May-Grunwald/Giemsa solutions.
CD34^+ purified and whole MNC cultures were prepared and maintained as described above. […] The antagonist was added for a predetermined, limited period, for up to three weeks or continuously during the entire culture period.
Cells were harvested, washed with a PBS solution containing 1% bovine sera albumin (BSA) and 0.1% sodium azide (Sigma), and stained at 4° C. for 60 minutes with fluorescein isothiocyanate or phycoerythrin-conjugated antibodies (all from Immunoquality Products, the Netherlands). The cells were then washed with the same buffer and analyzed by FACS caliber or Facstarplus flow cytometers. Cells were passed at a rate of 1000 cells/second, using saline as the sheath fluid. A 488 nm argon laser beam served as the light source for excitation. Emission of ten thousand cells was measured using logarithmic amplification, and analyzed using CellQuest software. Negative control staining of cells was accomplished with mouse IgG-PE (Dako A/S Glostrup, Denmark) and mouse IgG-FITC (BD Biosciences, Erembodegem, Belgium).
CD34 surface expression on short and long-term cultures initiated either with purified CD34^+ cells or the entire MNC fraction was determined as follows: CD34^+ cells were positively reselected (Miltenyi kit) and counted. Purity was confirmed by subsequent FACS and cell morphology analysis.
Reselected CD34^+ cell subsets were stained for the following combination of antigens: CD34PE/CD38FITC and CD34PE/38, 33, 14, 15, 3, 4, 61, 19 (Lin) FITC. The fraction positive for CD34 and negative for CD38 was defined as CD34^+CD38^−. The fraction positive for CD34 and negative for LIN was defined as CD34^+Lin^− cell fraction.
FACS analysis results are given as percentage values of cells. Absolute numbers of subsets are calculated from the absolute number of CD34^+ cells.

[2] = tested on: Lin− c-kit+ Sca-1+ murine hematopoietic precursors; details: cited from earlier work
[3] = tested on: HL-60 cells; details: cited from earlier work
[4] = tested on: CD34+ cells; test: Colony forming unit (CFU / LTC-CFUc) ability of ex-vivo CD34+ cell cultures; type: cell-based, human; details: 10^−5M
Protocol: Total cell counts, numbers of CD34^+ cells and subsets, and CFU numbers are presented as cumulative numbers, with the assumption that the cultures had not been passaged; i.e., the number of cells per ml were multiplied by the number of passages performed.
Cells were cloned in semi-solid, methylcellulose-containing medium supplemented with 2 IU/ml erythropoietin (Eprex, Cilag AG Int., Switzerland), stem cell factor and IL-3, both at 20 ng/ml, and G-CSF and GM-CSF, both at 10 ng/ml (all from Perpo Tech). Cultures were incubated for 14 days at 37° C., 5% CO2 in a humidified atmosphere.
Briefly, the ability of the cultures to maintain self-renewal was measured by determination of the content of colony forming unit cells in the long and extended long-term cultures (LTC-CFUc), as described in the references hereinabove.

[5] = TPO, FLT3, IL-6, IL-3, 3 weeks after seeding

For `CCCOc1cc2c(cc1\C(C)=C/C=C/C(C)=C/C(=O)O)C(C)(C)CCC2(C)C` [LGN 100754], the “activity on ex vivo expansion of stem/progenitor cells” value ([1]; 10^−7 M, along with IL-3, 3 and 5 weeks) was “no activity”.
In the case of `Cc1ccc(C2=CCC(C)(C)c3ccc(C#Cc4ccc(C(=O)O)cc4)cc32)cc1` [AGN 193109], the “increase in the pre-CFU-S population” value ([2]; cultured for 7 days) is listed as “approximately 6 fold” and the “short- or long-term repopulating ability” value ([2]; cultured for 7 days) is listed as “virtually no short- or long-term repopulating ability”.
In the case of `NC(=O)c1cccnc1` [Nicotinamide], the “CD34+ cells per ml” value ([1]; 1 mM, TPO) is given as 99 ×10^4 CD34+ cells per ml, the “CD34+ cells per ml” value ([1]; 5 mM, TPO) is given as 180 ×10^4 CD34+ cells per ml and the “CD38 activity and differentiation” value [3] is given as “inhibited”.
In the case of `CC1=C(/C=C/C(C)=C/C=C/C(C)=C/C(=O)O)C(C)(C)CCC1` [ATRA, all-trans-retinoic-acid], the “generation of colony-forming cell (CFC) and colony-forming unit-spleen (CFU-S)” value ([2]; 1 μmol) is listed as “enhanced”.
With `CN1c2ccc([N+](=O)[O-])cc2N=C(c2ccc(C(=O)O)cc2)c2cc3c(cc21)C(C)(C)CCC3(C)C` [HX-531, 4-[5H-2,3-(2,5-Dimethyl-2,5-Hexano) 5-Methyl-8-nitrodibenzo [b,e][1,4]diazepin-11-yl) Benzoic acid] the “CD34+ (×10^4)” value ([1]; 5 weeks after seeding) was 1636 ×10^4, the “CD34+ (×10^4)” value ([1]; 9 weeks after seeding) was 4977 ×10^4 and the “CD34+ (×10^4)” value ([1]; 11 weeks after seeding) was 4055 ×10^4. For the same molecule, the “CD34+ (×10^4)” value [1, 5] was 167 ×10^4, the “CFU (×10^3), mixed” value ([4]; 3 weeks after seeding, mixed colonies) was “(120 mixed) ×10^3” and the “CFU (×10^3)” value ([4]; 5 weeks after seeding) was 8542 ×10^3. For the same molecule, the “CFU (×10^3)” value ([4]; 9 weeks after seeding) was 36557 ×10^3, the “CFU (×10^3)” value ([4]; 11 weeks after seeding) was 67338 ×10^3 and the “CFU (×10^3)” value [4, 5] was 1920 ×10^3.

Source: US7955852B2, “Expansion of renewable stem cell populations” (Gamida Cell Ltd., priority 2002, dated 2011)
